Data as given in ChEMBL document CHEMBL1201862, “PubChem BioAssay data set” (2004).
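Each compound was tested at five concentrations against cells in 96-well plates for 48 hours. GI50 marks 50% less growth.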 Activity calls are given as the source filed them. Rule as the data show it: active = GI50 up to about 1.1 µM and inactive = higher.

Columns and labels:
Test in all cases: NCI tumour cell line growth inhibition, 48 h
CAKI-1 = test system: CAKI-1
HOP-62 = test system: HOP-62
SF-268 = test system: SF-268
IGROV-1 = test system: IGROV-1
HL-60 = test system: HL-60
TK-10 = test system: TK-10
UACC-62 = test system: UACC-62
SK-MEL-2 = test system: SK-MEL-2
M14 = test system: M14
OVCAR-5 = test system: OVCAR-5
UACC-257 = test system: UACC-257
LOX IMVI = test system: LOX IMVI
HCC 2998 = test system: HCC 2998
OVCAR-3 = test system: OVCAR-3
CCRF-CEM = test system: CCRF-CEM
COLO 205 = test system: COLO 205

Measured: GI50

CCOC(=O)C1=C(OC(OCC)C(CC)[Se]c2ccccc2)CCC1 (stereo not given)
inactive: CAKI-1 44.2 µM | HOP-62 78.5 µM | SF-268 18.7 µM | IGROV-1 25.6 µM | HL-60 12.4 µM | TK-10 82 µM | UACC-62 17.8 µM | SK-MEL-2 31.5 µM | M14 15.1 µM | OVCAR-5 23.1 µM | UACC-257 28 µM | LOX IMVI 7.31 µM | HCC 2998 15.2 µM | OVCAR-3 23.7 µM | CCRF-CEM 11 µM | COLO 205 34.3 µM

NC(=S)N/N=C(\C(=O)Nc1ccc(Cl)c(Cl)c1)C1=NN(c2ccccc2)C(c2cccc([N+](=O)[O-])c2)CC1=O (stereo not given)
inactive: CAKI-1 79.4 µM | HOP-62 34.6 µM | SF-268 38.5 µM | IGROV-1 27 µM | HL-60 33.7 µM | TK-10 > 100 µM | UACC-62 40.8 µM | SK-MEL-2 > 100 µM | M14 55.1 µM | OVCAR-5 38.5 µM | UACC-257 30.2 µM | LOX IMVI 16.3 µM | HCC 2998 40.6 µM | OVCAR-3 20.6 µM | CCRF-CEM 17.2 µM | COLO 205 19 µM

CN1OC(CO)CC12C1CC3CC(C1)CC2C3 (stereo not given)
inactive: CAKI-1 > 100 µM | HOP-62 > 100 µM | SF-268 > 100 µM | IGROV-1 > 100 µM | HL-60 > 100 µM | TK-10 > 100 µM | UACC-62 > 100 µM | SK-MEL-2 > 100 µM | M14 > 100 µM | OVCAR-5 > 100 µM | LOX IMVI > 100 µM | HCC 2998 > 100 µM | OVCAR-3 > 100 µM | CCRF-CEM > 100 µM | COLO 205 > 100 µM

COc1ccc(/C=N\N2C(=O)Cc3ccccc32)cc1
inactive: CAKI-1 > 100 µM | HOP-62 64.1 µM | SF-268 74.3 µM | IGROV-1 > 100 µM | HL-60 > 100 µM | TK-10 59.6 µM | UACC-62 > 100 µM | SK-MEL-2 > 100 µM | M14 86.1 µM | OVCAR-5 > 100 µM | UACC-257 > 100 µM | LOX IMVI > 100 µM | HCC 2998 25.4 µM | OVCAR-3 > 100 µM | CCRF-CEM > 100 µM | COLO 205 > 100 µM

CCOC(=O)NC(=O)c1cn(C2OC(COC(=O)CCCCCCCCC(=O)OCC3OC(n4cc(C(=O)NC(=O)OCC)c(=O)[nH]c4=O)C(O)C3O)C(O)C2O)c(=O)[nH]c1=O (stereo not given)
inactive: CAKI-1 > 100 µM | HOP-62 > 100 µM | SF-268 > 100 µM | IGROV-1 > 100 µM | HL-60 > 100 µM | TK-10 > 100 µM | UACC-62 > 100 µM | SK-MEL-2 > 100 µM | M14 > 100 µM | OVCAR-5 > 100 µM | UACC-257 > 100 µM | LOX IMVI > 100 µM | HCC 2998 > 100 µM | OVCAR-3 > 100 µM | CCRF-CEM > 100 µM

N#Cc1ccc(C(C2C(=O)NC(=O)NC2=O)C2C(=O)NC(=O)NC2=O)cc1
inactive: CAKI-1 > 100 µM | HOP-62 > 100 µM | SF-268 > 100 µM | IGROV-1 > 100 µM | HL-60 > 100 µM | TK-10 > 100 µM | UACC-62 > 100 µM | SK-MEL-2 > 100 µM | M14 > 100 µM | OVCAR-5 > 100 µM | UACC-257 > 100 µM | LOX IMVI > 100 µM | HCC 2998 > 100 µM | OVCAR-3 > 100 µM | CCRF-CEM > 100 µM | COLO 205 > 100 µM

COC1OC(OC)C2C(c3c(C)cc(C)cc3C)=NOC12 (stereo not given)
inactive: CAKI-1 > 100 µM | HOP-62 2.13 µM | SF-268 > 100 µM | IGROV-1 > 100 µM | HL-60 > 100 µM | TK-10 > 100 µM | UACC-62 > 100 µM | SK-MEL-2 > 100 µM | M14 > 100 µM | OVCAR-5 > 100 µM | UACC-257 > 100 µM | LOX IMVI > 100 µM | HCC 2998 > 100 µM | OVCAR-3 > 100 µM | CCRF-CEM > 100 µM | COLO 205 > 100 µM
